Data as given in patent US20120100077A1, “MIXTURE OF AMPHIPATHIC MOLECULES AND METHOD FOR MODIFYING CELL MEMBRANES BY MEANS OF FUSION” (priority 2009, published 2012).
Read-outs that look alike come from different tables or passages of the source.

Key:
[1] = tested on: cell membrane; test: Fusion quality of R groups bound to amphipathic molecules B in the fusion mixture
Protocol: (§1) After homogenization in the organic solvent, the organic solvent should be removed.
(§2) The dried mixture is taken up in an aqueous buffer solution, preferably having a pH value of 7, and is homogenized once more. Advantageously a liposome forms, which comprises the molecule types that were added. Molecules of molecule types E and F can likewise be added.
(§3) According to the actual method, the fusion mixture is diluted with a cell medium, e.g. 1:100 (mixture:cell medium v/v), homogenized once more, and added to the cells.
(§4) To this end it is sufficient for the cells to be brought in contact with the mixture for approximately 1 to 60 minutes, and in the case of tissue samples, for 60 to 120 minutes, for example. A cell washing step should then be incorporated.

[2] = tested on: cell membrane
Protocol: as §1, §2, §3, §4

[3] = R group covalently bound to lipid (molecule type B)

CCCCCCCCCCCCCCCCCCN1C(=CC=Cc2oc3ccccc3[n+]2CCCCCCCCCCCCCCCCCC)Oc2ccccc21.[O-][Cl+3]([O-])([O-])[O-] [DiO per se, DiOC18(3)3,3′-dioctadecyloxacarbocyanine perchlorate]
Fusion quality [1, 3]: 1

CCCCCCCC/C=C\CCCCCCCC(=O)OC[C@H](COP(=O)(O)OCCNS(=O)(=O)c1ccc(-c2c3ccc(N(CC)CC)cc3[o+]c3cc(N(CC)CC)ccc23)c(S(=O)(=O)[O-])c1)OC(=O)CCCCCCC/C=C\CCCCCCCC.CCN(CC)CC [LR, Lissamine rhodamine B 1,2-diolenoyl-sn-glycero-3-phosphoethanolamine, (triethylammonium salt)]
Fusion quality [1]: 1

CCCCCCCC/C=C\CCCCCCCC(=O)OC[C@H](COP(=O)(O)OCCNc1ccc([N+](=O)[O-])c2nonc12)OC(=O)CCCCCCC/C=C\CCCCCCCC.CCN(CC)CC [NBD, N-(7-nitrobenz-2-oxa-1,3-diazol-4-yl)-1,2-diolenoyl-sn-glycero-3-phosphoethanolamine (triethylammonium salt)]
Fusion quality [1]: 2

CCCCCCCC/C=C\CCCCCCCC(=O)OC[C@H](COP(=O)(O)OCCNC(=O)OCCOCCOCCOCCOCCOCCOCCOCCOCCOCCOCCOCCOCCOCCOCCOCCOCCOCCOCCOCCOCCOCCOCCOCCOCCOCCOCCOCCOCCOCCOCCOCCOCCOCCOCCOCCOCCOCCOCCOCCOCCOCCOCCOCCOCCOC)OC(=O)CCCCCCC/C=C\CCCCCCCC.N [PEG(2000), 1,2-dioleoyl-sn-glycero-3-phosphoethanolamine-N-[methoxy(polyethylene glycol)-2000](ammonium salt)]
Fusion quality [1, 3]: 6
toxic [1, 3]: toxic

CCCCCCCC/C=C\CCCCCCCC(=O)OC[C@H](COP(=O)(O)OCCNC(=O)CCCCCNC(=O)CCCCC1SCC2NC(=O)NC21)OC(=O)CCCCCCC/C=C\CCCCCCCC (stereo partly drawn) [capBiotin, 1,2-dioleoyl-sn-glycero-3-phosphoethanolamine-N-cap-biotin]
Fusion quality [1]: 6
function as fusion-inducing molecule type B [1]: do not, however, function

CCCCC/C=C\C/C=C\C/C=C\C/C=C\CCCC(=O)O[C@H](COC(=O)CCCCCCCCCCCCCCCCC)COP(=O)([O-])O[C@H]1C(O)C(O)C(O)[C@@H](O)C1O.[Na+] (stereo partly drawn) [inositol, L-α-phosphatidylinositol (sodium salt)]
function as fusion-inducing molecule type B [1]: non-functional
Fusion quality [1, 3]: 6
toxic [1, 3]: toxic

c1cc2ccc3cccc4ccc(c1)c2c34 [pyrene]
toxic [2]: 5(toxic)

Texas Red 1,2-dihexadecanoyl-sn-glycero-3-phosphoethanolamine (triethylammonium salt) [Texas-Red]
Fusion quality [1, 3]: 1
